From patent US4912215A, “Q-1047 Substances” (Yamanouchi Pharmaceutical Co., Ltd., priority 1989, dated 1990)

How the values were obtained:
[1] = Superoxide anion scavenging activity (method of McCord and Fridovich, xanthine/xanthine oxidase, ferricytochrome C); format: biochemical; details: for concentration dependency of superoxide anion scavenging activity: FIG. 30, FIG. 31, FIG. 32; for SOD-like activity of the detected/isolated substance: TLC-detected substance in preparation examples, test not detailed; for IC50 / superoxide anion scavenging activity (in words): pH 7.8, 25° C.; for IC50: xanthine/xanthine oxidase, ferricytochrome C, read-out: concentration of the compound which showed one unit of SOD activity (50% reduction of increase in absorbance at 550 nm); for superoxide anion scavenging activity (in words): same reaction system
Experimental: The compounds according to the invention were tested for superoxide anion scavenging activity by the method of McCord and Fridovich [J. Biol. Chem., 244 (22), 6049-6055 1969) . Thus, xanthine oxidase was added to 5 ×10^-2 M potassium phosphate buffer (pH 7.8) containing 1 ×10^-4 M EDTA, 1×10^-5 M ferricytochrome C and 5×10^-5 M xanthine to give a reaction system in which the rate of increase in absorbance at 550 nm as determined at 25° C. amounted to 0.025 per minute.

Solubility = format: physicochemical; details: for Solubility in dioxane, toluene, benzene, chloroform: toluene (printed tolueno)
[2] = Basic, neutral or acidic nature; format: physicochemical
[3] = test system: Puromycin aminonucleoside (PAN) nephrosis rats; experiment: Effect on puromycin nephritis (PAN nephrosis rats); format: in vivo, Male Sprague-Dawley rats; details: 10 mg/kg i.p. daily
Experimental: Male Sprague-Dawley rats (weighing 180-200 g) were used. Puromycin aminonucleoside (PAN) nephrosis rats were prepared by single intraperitoneal administration of 50 mg/kg of PAN. Throughout the experiment, the rats were fed in metabolic cages and received a solid diet for rats and tap water ad libitum. Urine samples were collected at timed intervals for 24 hours and assayed for protein content. The test drug, suspended in a 0.5% methylcellulose solution, was intraperitoneally administered daily. After the administration period, kidneys were excised, and thin sections were prepared therefrom in the conventional manner and examined microscopically.

[4] = Antioxidant activity (decolorization of DPPH radical); format: biochemical; details: for reduction of absorbance due to DPPH at 517 nm: 0.1 mM DPPH in ethanol, 30 minutes; for antioxidant activity of the detected/isolated substance: TLC-detected or isolated substance in preparation examples, test not detailed
Experimental: Generally, substances called antioxidants can decolorize 1,1-diphenyl-2-picrylhydrazyl (DPPH), which is a stable radical.
Thus, DPPH was dissolved in ethanol to a concentration of 0.1 mM, the test compound was admixed with the solution and, 30 minutes later, the absorbance was determined at 517 nm.

Acute toxicity in mice = details: mouse, in vivo, ip

| SMILES | IC50 [1] | Solubility in dioxane, chloroform, ethyl acetate, acetonitrile (Solubility) | Solubility in toluene, benzene, ethanol, methanol (Solubility) | Solubility in water, hexane (Solubility) | Basic, neutral or acidic [2] | concentration dependency of superoxide anion scavenging activity [1] | SOD-like activity of the detected/isolated substance [1] | superoxide anion scavenging activity (in words) [1] | urinary protein level ([3]; PAN 50 mg/kg i.p. single, compared with PAN alone on 7th day) | kidney tissue examination (glomerular changes or abnormalities) ([3]; compared with PAN alone) | reduction of absorbance due to DPPH at 517 nm [4] | antioxidant activity of the detected/isolated substance [4] | Solubility in dioxane, toluene, benzene, chloroform (Solubility) | Solubility in ethyl acetate, acetonitrile, acetone, ethanol, methanol (Solubility) | LD50 (Acute toxicity in mice) |
| --- | --- | --- | --- | --- | --- | --- | --- | --- | --- | --- | --- | --- | --- | --- | --- |
| CC1=CC(C)C(OC2CCC(O)C(C)O2)C2=CC(=O)C=C(NC(=O)C(C)C(=O)C(C)C1)C2=O (stereo not drawn) [Q-1047-A] | 5.6 µM | Soluble | sparingly | insoluble | Neutral | dependent on the concentration | SOD-like activity |  |  |  |  |  |  |  |  |
| CC1=CC(C)C(OC2CCC(O)C(C)O2)C2=CC(=O)C=C(NC(=O)C(C)C(=O)C(C)C1)C2=O (stereo not drawn) [Q-1047-B] | 35 µM | Soluble | sparingly | insoluble | Neutral | dependent on the concentration | SOD-like activity |  |  |  |  |  |  |  |  |
| CC1=CC(C)C(O)c2cc(O)cc(c2O)NC(=O)C(C)C(=O)C(C)C1 (stereo not drawn) [Q-1047H-R-A] |  |  |  | insoluble | Neutral |  |  |  |  |  | reduced the absorbance due to DPPH | antioxidant activity | sparingly | Soluble |  |
| CC1=CC(C)C(OC2CCC(O)C(C)O2)c2cc(O)cc(c2O)NC(=O)C(C)C(=O)C(C)C1 (stereo not drawn) [Q-1047R-A] |  |  |  | insoluble | Neutral |  |  |  |  |  | reduced the absorbance due to DPPH | antioxidant activity | sparingly | Soluble | > 500 mg/kg |

Now from value to molecule, other results behind:

| IC50 [1] | Solubility in dioxane, chloroform, ethyl acetate, acetonitrile (Solubility) | Solubility in toluene, benzene, ethanol, methanol (Solubility) | Solubility in water, hexane (Solubility) | Basic, neutral or acidic [2] | SMILES | concentration dependency of superoxide anion scavenging activity [1] | SOD-like activity of the detected/isolated substance [1] | superoxide anion scavenging activity (in words) [1] | urinary protein level ([3]; PAN 50 mg/kg i.p. single, compared with PAN alone on 7th day) | kidney tissue examination (glomerular changes or abnormalities) ([3]; compared with PAN alone) | reduction of absorbance due to DPPH at 517 nm [4] | antioxidant activity of the detected/isolated substance [4] | Solubility in dioxane, toluene, benzene, chloroform (Solubility) | Solubility in ethyl acetate, acetonitrile, acetone, ethanol, methanol (Solubility) | LD50 (Acute toxicity in mice) |
| --- | --- | --- | --- | --- | --- | --- | --- | --- | --- | --- | --- | --- | --- | --- | --- |
| 25 µM | Soluble | sparingly | insoluble | Neutral | CC1=CC(C)C(O)C2=CC(=O)C=C(NC(=O)C(C)C(=O)C(C)C1)C2=O (stereo not drawn) [Q-1047H-A-A] | concentration-dependent | SOD-like activity | have superoxide anion scavenging activity | almost no increase in urinary protein was observed | such changes or abnormalities were lesser in extent and lower in incidence |  |  |  |  |  |
| 22 µM | Soluble | sparingly | insoluble | Neutral | CC1=CC(C)C(O)C2=CC(=O)C=C(NC(=O)C(C)C(=O)C(C)C1)C2=O (stereo not drawn) [Q-1047H-A-B] | concentration-dependent | SOD-like activity | have superoxide anion scavenging activity |  |  |  |  |  |  |  |
